Data reported in article PMC6273433, “Design, Synthesis and Cytotoxicity of Novel Dihydroartemisinin-Coumarin Hybrids via Click Chemistry” (Molecules, 2016).
Where two headings read alike, the source gives them in different places.

Assays:
[1] = test system: MRC-5 (human fetal lung fibroblast cells, normal lung cell); test: MTT cytotoxicity assay, MRC-5 normal cells; type: cell-based; conditions: MRC5, MRC-5, normoxia, 96 h MTT
Procedure: (§1) We focused our attention on the cytotoxicity of the four series of newly-synthesized compounds (10a–e, 11a–e, 12a–e, and 13a–e) under normoxic or anoxic conditions.
(§2) The data was calculated by the Logit method and presented as IC50 values in Table 1.
(§3) All of the newly-synthesized compounds were screened for in vitro cytotoxicity by MTT assay. The exponentially-growing MRC-5, HCT-116, MDA-MB-231, and HT-29 cells were allowed to grow until 80% confluency, the culture medium was discarded, digested with trypsin, separated centrifugally, then fresh culture medium was added and blown gently into single-cell suspension. Then, the cell suspension was seeded into each well of 96-well microculture plates at a concentration of 1.5 × 10^3–3 × 10^3 cells/well.
(§4) The cells were incubated with 50 μL of 2 mg/mL MTT solution for 4 h in a humidified incubator. The supernatant was discarded, and the media were then replaced with 200 μL of dimethyl sulfoxide to dissolve the purple colored formazan crystals formed in the wells, and their absorbances were measured at 492 nm with a microplate reader (Synergy-HT, BioTek Instruments, Winooski, VT, USA); 200 μL DMSO was set as the blank control.

[2] = test system: HCT-116 (human colorectal cancer cell line); test: MTT cytotoxicity assay, HCT-116 under anoxia or normoxia; type: cell-based; conditions: for HCT-116 Value = IC50(normoxia)/IC50(anoxia): HCT-116, activity promotion under anoxia, >100 set as 100; for IC50: Homo sapiens
Procedure: as §1, §2, §3, §4
(§5) The anoxia condition was achieved by placing cells in a sealed hypoxia incubator chamber (Catalog Number 27310, Stemcell Technologies, Inc., Vancouver, BC, Canada) filled with 5% CO2 and 95% N2.

[3] = test system: MDA-MB-231 (human breast carcinoma cell line, CA IX negative); test: MTT cytotoxicity assay, MDA-MB-231 under anoxia or normoxia; type: cell-based; conditions: for IC50: Homo sapiens; for MDA-MB-231 Value = IC50(normoxia)/IC50(anoxia): MDA-MB-231, activity promotion under anoxia, >100 set as 100
Procedure: as §1, §2, §3, §4, §5

[4] = test system: HT-29 (human colon carcinoma cell line, overexpresses high amounts of CA IX); test: MTT cytotoxicity assay, HT-29 under anoxia or normoxia; type: cell-based; conditions: for HT-29 Value = IC50(normoxia)/IC50(anoxia): HT-29, activity promotion under anoxia; for IC50: Homo sapiens
Procedure: as §1, §2, §3, §4, §5

[5] = MTT cytotoxicity assay, summary statements over all cell lines; type: cell-based; conditions: human, MRC-5, HCT-116, MDA-MB-231 and HT-29 cells; 96 h MTT assay, four cell lines, normoxic or anoxic
Procedure: as §1, §2, §3, §4, §5

[6] = HCT-116, anoxia 24 h then normoxia 72 h, MTT, read-out: IC50 HCT-116 Anoxia
[7] = HCT-116, normoxia, 96 h MTT, read-out: IC50 HCT-116 Normoxia
[8] = MDA-MB-231, anoxia 24 h then normoxia 72 h, MTT, read-out: IC50 MDA-MB-231 Anoxia
[9] = MDA-MB-231, normoxia, 96 h MTT, read-out: IC50 MDA-MB-231 Normoxia
[10] = HT-29, anoxia 24 h then normoxia 72 h, MTT, read-out: IC50 HT-29 Anoxia
[11] = HT-29, normoxia, 96 h MTT, read-out: IC50 HT-29 Normoxia

Cc1c(C)c2ccc(OCc3cn(CCO[C@H]4O[C@@H]5O[C@@]6(C)CC[C@H]7[C@H](C)CC[C@@H]([C@H]4C)[C@@]57OO6)nn3)cc2oc1=O [12c, 7-(1-(2-(10β-Dihydroartemisininoxy)ethyl)-1H-1,2,3-triazol-4-yl)methoxy-3,4-dimethyl-2H-chromen-2-one]
IC50 [1]: 33.8 µM
HCT-116 Value = IC50(normoxia)/IC50(anoxia) [2]: 1.33
IC50 [2, 6]: 12.1 µM
IC50 [2, 7]: 16 µM
IC50 [3, 8]: 33.2 µM
IC50 [3, 9]: > 100 µM
HT-29 Value = IC50(normoxia)/IC50(anoxia) [4]: 6.04
IC50 [4, 10]: 2.87 µM
IC50 [4, 11]: 17.3 µM
melting point: 84 to 86 °C

Cc1c(Cl)c(=O)oc2cc(OCc3cn(CCO[C@H]4O[C@@H]5O[C@@]6(C)CC[C@H]7[C@H](C)CC[C@@H]([C@H]4C)[C@@]57OO6)nn3)ccc12 [12d, 3-Chloro-7-(1-(2-(10β-dihydroartemisininoxy)ethyl)-1H-1,2,3-triazol-4-yl)methoxy-4-methyl-2H-chromen-2-one]
IC50 [1]: 62.3 µM
HCT-116 Value = IC50(normoxia)/IC50(anoxia) [2]: 2.71
IC50 [2, 6]: 5.86 µM
IC50 [2, 7]: 15.9 µM
IC50 [3, 8]: 43.5 µM
IC50 [3, 9]: > 100 µM
MDA-MB-231 Value = IC50(normoxia)/IC50(anoxia) [3]: 2.30
HT-29 Value = IC50(normoxia)/IC50(anoxia) [4]: 6.16
IC50 [4, 10]: 3.63 µM
IC50 [4, 11]: 22.4 µM
melting point: 76 to 78 °C

Cc1cc(=O)oc2cc(OCc3cn(CCO[C@H]4O[C@@H]5O[C@@]6(C)CC[C@H]7[C@H](C)CC[C@@H]([C@H]4C)[C@@]57OO6)nn3)ccc12 [12a, 7-(1-(2-(10β-Dihydroartemisininoxy)ethyl)-1H-1,2,3-triazol-4-yl)methoxy-4-methyl-2H-chromen-2-one]
IC50 [1]: 37.4 µM
HCT-116 Value = IC50(normoxia)/IC50(anoxia) [2]: 1.50
IC50 [2, 6]: 18.3 µM
IC50 [2, 7]: 27.4 µM
IC50 [3, 8]: 47.7 µM
IC50 [3, 9]: 125 µM
MDA-MB-231 Value = IC50(normoxia)/IC50(anoxia) [3]: 2.63
HT-29 Value = IC50(normoxia)/IC50(anoxia) [4]: 3.11
IC50 [4, 10]: 10.6 µM
IC50 [4, 11]: 33 µM
melting point: 79 to 81 °C

C[C@H]1[C@@H](OCCCn2cc(COc3ccc4c(C(F)(F)F)cc(=O)oc4c3)nn2)O[C@@H]2O[C@@]3(C)CC[C@H]4[C@H](C)CC[C@@H]1[C@@]24OO3 [13b, 7-(1-(3-(10β-Dihydroartemisininoxy)propyl)-1H-1,2,3-triazol-4-yl)methoxy-4-trifluoromethyl-2H-chromen-2-one]
IC50 [1]: 21.4 µM
HCT-116 Value = IC50(normoxia)/IC50(anoxia) [2]: 7.43
IC50 [2, 6]: 2.75 µM
IC50 [2, 7]: 20.4 µM
IC50 [3, 8]: 26.6 µM
IC50 [3, 9]: > 100 µM
MDA-MB-231 Value = IC50(normoxia)/IC50(anoxia) [3]: 3.76
HT-29 Value = IC50(normoxia)/IC50(anoxia) [4]: 3.74
IC50 [4, 10]: 5.31 µM
IC50 [4, 11]: 19.8 µM
melting point: 69 to 71 °C

Cc1c(C)c2ccc(OCc3cn(CCCO[C@H]4O[C@@H]5O[C@@]6(C)CC[C@H]7[C@H](C)CC[C@@H]([C@H]4C)[C@@]57OO6)nn3)cc2oc1=O [13c, 7-(1-(3-(10β-Dihydroartemisininoxy)propyl)-1H-1,2,3-triazol-4-yl)methoxy-3,4-dimethyl-2H-chromen-2-one]
IC50 [1]: 27.8 µM
HCT-116 Value = IC50(normoxia)/IC50(anoxia) [2]: 8.95
IC50 [2, 6]: 2.13 µM
IC50 [2, 7]: 19.1 µM
IC50 [3, 8]: 4.17 µM
IC50 [3, 9]: 59.6 µM
MDA-MB-231 Value = IC50(normoxia)/IC50(anoxia) [3]: 14.29
HT-29 Value = IC50(normoxia)/IC50(anoxia) [4]: 4.23
IC50 [4, 10]: 2.8 µM
IC50 [4, 11]: 11.9 µM
melting point: 68 to 70 °C

CCOC(=O)c1cc2ccc(OCc3cn(CCO[C@H]4O[C@@H]5O[C@@]6(C)CC[C@H]7[C@H](C)CC[C@@H]([C@H]4C)[C@@]57OO6)nn3)cc2oc1=O [12e, Ethyl 2-oxo-7-(1-(2-(10β-dihydroartemisininoxy)ethyl)-1H-1,2,3-triazol-4-yl)methoxy-2H-chromene-3-carboxylate]
IC50 [1]: 69.5 µM
HCT-116 Value = IC50(normoxia)/IC50(anoxia) [2]: 1.62
IC50 [2, 6]: 35.7 µM
IC50 [2, 7]: 57.9 µM
IC50 [3, 8]: 65.1 µM
IC50 [3, 9]: > 100 µM
MDA-MB-231 Value = IC50(normoxia)/IC50(anoxia) [3]: 1.54
HT-29 Value = IC50(normoxia)/IC50(anoxia) [4]: 1.88
IC50 [4, 10]: 20.8 µM
IC50 [4, 11]: 39 µM
melting point: 71 to 73 °C

Cc1cc(=O)oc2cc(OCc3cn(CCCO[C@H]4O[C@@H]5O[C@@]6(C)CC[C@H]7[C@H](C)CC[C@@H]([C@H]4C)[C@@]57OO6)nn3)ccc12 [13a, 7-(1-(3-(10β-Dihydroartemisininoxy)propyl)-1H-1,2,3-triazol-4-yl)methoxy-4-methyl-2H-chromen-2-one]
IC50 [1]: 26.2 µM
HCT-116 Value = IC50(normoxia)/IC50(anoxia) [2]: 2.95
IC50 [2, 6]: 9.65 µM
IC50 [2, 7]: 28.5 µM
IC50 [3, 8]: 36.1 µM
IC50 [3, 9]: > 100 µM
MDA-MB-231 Value = IC50(normoxia)/IC50(anoxia) [3]: 2.77
HT-29 Value = IC50(normoxia)/IC50(anoxia) [4]: 4.30
IC50 [4, 10]: 6.4 µM
IC50 [4, 11]: 27.5 µM
melting point: 75 to 77 °C

Cc1c(Cl)c(=O)oc2cc(OCc3cn(CCCO[C@H]4O[C@@H]5O[C@@]6(C)CC[C@H]7[C@H](C)CC[C@@H]([C@H]4C)[C@@]57OO6)nn3)ccc12 [13d, 3-Chloro-7-(1-(3-(10β-Dihydroartemisininoxy)propyl)-1H-1,2,3-triazol-4-yl)methoxy-4-methyl-2H-chromen-2-one]
IC50 [1]: 31.5 µM
HCT-116 Value = IC50(normoxia)/IC50(anoxia) [2]: 41.38
IC50 [2, 6]: 0.43 µM
IC50 [2, 7]: 18 µM
IC50 [3, 8]: 3.62 µM
IC50 [3, 9]: 72.5 µM
MDA-MB-231 Value = IC50(normoxia)/IC50(anoxia) [3]: 20.03
HT-29 Value = IC50(normoxia)/IC50(anoxia) [4]: 1.87
IC50 [4, 10]: 4.68 µM
IC50 [4, 11]: 8.76 µM
melting point: 71 to 73 °C

C[C@H]1[C@@H](OCCn2cc(COc3ccc4c(C(F)(F)F)cc(=O)oc4c3)nn2)O[C@@H]2O[C@@]3(C)CC[C@H]4[C@H](C)CC[C@@H]1[C@@]24OO3 [12b, 7-(1-(2-(10β-Dihydroartemisininoxy)ethyl)-1H-1,2,3-triazol-4-yl)methoxy-4-trifluoromethyl-2H-chromen-2-one]
IC50 [1]: 18.5 µM
HCT-116 Value = IC50(normoxia)/IC50(anoxia) [2]: 0.35
IC50 [2, 6]: 24.4 µM
IC50 [2, 7]: 8.47 µM
IC50 [3, 8]: 14.7 µM
IC50 [3, 9]: 40.1 µM
MDA-MB-231 Value = IC50(normoxia)/IC50(anoxia) [3]: 2.73
HT-29 Value = IC50(normoxia)/IC50(anoxia) [4]: 4.62
IC50 [4, 10]: 2.46 µM
IC50 [4, 11]: 11.3 µM
melting point: 77 to 79 °C

CCOC(=O)c1cc2ccc(OCc3cn(CCCO[C@H]4O[C@@H]5O[C@@]6(C)CC[C@H]7[C@H](C)CC[C@@H]([C@H]4C)[C@@]57OO6)nn3)cc2oc1=O [13e, Ethyl 2-oxo-7-(1-(3-(10β-dihydroartemisininoxy)propyl)-1H-1,2,3-triazol-4-yl)methoxy-2H-chromene-3-carboxylate]
IC50 [1]: 27.2 µM
HCT-116 Value = IC50(normoxia)/IC50(anoxia) [2]: 3.65
IC50 [2, 6]: 17.6 µM
IC50 [2, 7]: 64.3 µM
IC50 [3, 8]: 25.9 µM
IC50 [3, 9]: 53.7 µM
MDA-MB-231 Value = IC50(normoxia)/IC50(anoxia) [3]: 2.07
HT-29 Value = IC50(normoxia)/IC50(anoxia) [4]: 2.22
IC50 [4, 10]: 7.09 µM
IC50 [4, 11]: 15.7 µM
melting point: 79 to 81 °C

CC(=O)Nc1nnc(S(N)(=O)=O)s1 [AAZ, acetazolamide]
IC50 at 96 h [5]: > 100 µM
